# What was measured:
# [1] = molecular target: T1, messenger ribonucleic acid polymerase (Mus musculus, UniProt P08775+Q8CFI7); experiment: In vitro messenger ribonucleic acid polymerase activity; type: biochemical; settings: 0.25 to 1.0 mM
# T1 construct: enzymes isolated from nuclei; endogenous in cells; host or cells: Ehrlich ascites tumor cell nuclei, ammonium sulfate fraction
# Experimental: CF1 male mice (~30 g) were implanted with 2×10^6 Ehrlich ascites tumor cells, intraperitoneally on Day 0. Compound I was suspended by homogenation in 0.05% polysorbate.80-water and administered intraperitoneally at 10 and 20 mg/kg for 9 days to determine its effectiveness for inhibition of tumor growth. Mice were sacrificed on Day 10, and the ascites fluid was collected from the peritoneal cavity. The volume and ascrit (packed cell volume) were determined for each animal and the percent inhibition of tumor growth was calculated. For the metabolic studies, mice were treated on Days 8 and 9 with 10 mg/kg of Compound I, intraperitoneally. The animal was sacrificed on Day 10 and the ascites fluid harvested. The in vitro metabolic studies were performed at […] final concentration of Compound I.
# In vitro and in vivo nuclear deoxyribonucleic acid polymerase activity was determined on isolated Ehrlich ascites cell nuclei. The incubation was that described by Sawada et al [Can. Res., 34, 3341 (1974)] except that [methyl-^3 H] deoxythymidine triphosphate (82.4 Ci/mmol) was used. The acid insoluble nucleic acid was collected on GF/F filters and counted. Nuclear ribonucleic acid polymerase activities were determined on enzymes isolated from nuclei. […] The acid insoluble ribonucleic acid was collected on nitrocellulose filters and counted.
# HMG CoA Reductase = molecular target: T2, HMG CoA Reductase (Mus musculus, UniProt Q01237); experiment: In vivo liver enzyme study: HMG CoA reductase; settings: CF1 liver after 16 days i.p.
# T2 construct: 10% homogenates of CF1 male mouse liver; from tissue; host or cells: CF1 male mouse liver, post-mitochondrial supernatant
# T2 sequence (Q01237 1-887): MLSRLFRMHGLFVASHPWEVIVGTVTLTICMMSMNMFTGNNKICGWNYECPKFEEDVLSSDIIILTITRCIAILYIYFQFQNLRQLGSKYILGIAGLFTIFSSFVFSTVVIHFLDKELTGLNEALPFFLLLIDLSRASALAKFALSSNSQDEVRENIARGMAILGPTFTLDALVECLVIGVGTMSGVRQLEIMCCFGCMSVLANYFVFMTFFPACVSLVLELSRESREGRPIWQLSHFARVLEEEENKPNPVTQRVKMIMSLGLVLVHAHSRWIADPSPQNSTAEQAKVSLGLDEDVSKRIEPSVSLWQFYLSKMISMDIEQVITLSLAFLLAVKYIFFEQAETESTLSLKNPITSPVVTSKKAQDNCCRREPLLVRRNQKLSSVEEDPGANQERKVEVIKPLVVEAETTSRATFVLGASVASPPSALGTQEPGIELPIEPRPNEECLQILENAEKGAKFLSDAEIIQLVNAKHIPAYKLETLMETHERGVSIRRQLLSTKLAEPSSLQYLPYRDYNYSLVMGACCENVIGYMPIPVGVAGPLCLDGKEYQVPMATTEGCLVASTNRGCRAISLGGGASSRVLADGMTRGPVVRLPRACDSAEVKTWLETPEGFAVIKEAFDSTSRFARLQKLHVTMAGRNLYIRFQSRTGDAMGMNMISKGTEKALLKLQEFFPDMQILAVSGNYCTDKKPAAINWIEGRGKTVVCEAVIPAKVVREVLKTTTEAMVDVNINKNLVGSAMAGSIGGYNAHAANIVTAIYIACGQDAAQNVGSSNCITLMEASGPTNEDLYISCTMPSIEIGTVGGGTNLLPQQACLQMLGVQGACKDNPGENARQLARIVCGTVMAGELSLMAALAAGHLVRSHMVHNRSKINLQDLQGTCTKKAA
# Experimental: In vitro enzymatic studies were determined using 10% homogenates of CF1 male mouse liver with 50-200 μM of test drugs. In vivo enzymatic studies were determined using 10% homogenates of liver from CF1 male mice obtained after administering the agents for 16 days at a dose ranging from 2.5-20 mg/kg/day intraperitoneally. The liver homogenates for both in vitro and in vivo studies were prepared in 0.25M sucrose and 0.001M (ethylenedinitrilo)tetraacetic acid. Acetyl coenzyme A synthetase and adenosine triphosphate dependent citrate lyase activities were determined spectrophotometrically at 540 nm as the hydroxylamate of acetyl coenzyme A formed after 30 min at 37° C. Mitochondrial citrate exchange was determined by the procedure of Robinson et al [Eur. J. Biochem., 216, 63 (1970)] using ^14 C-sodium bicarbonate (41 mCi/mmol) incorporated into mitochondrial ^14 C-citrate after isolating rat mitochondria (9000 g×10 min) from the homogenates. The exchanges of the ^14 C-citrate were determined after incubating the mitochondrial fraction which was loaded with labeled citrate and test drugs for 10 min. Then the radioactivity was measured in the mitochondrial and supernantant fractions in scintillation fluid and expressed as a percentage. Cholesterol side chain oxidation was determined by the method of Kritchevsky and Tepper [Artherosclerosis, 18, 93 (1973)] using (26-^14 C) cholesterol (50 mCi/mmol) and mitochondria isolated from rat liver homogenates. […] Fatty acid synthetase activity was determined by the method of Brady et al [J. Biol. Chem., 235, 3093 (1960)] using [2-^14 C] malonyl-coenzyme A (37.5 mCi/mmol) which was incorporated into newly synthesized fatty acids that were extracted with ether and counted. Acyl transferase activity was determined with glycerol-3phosphate [L-2-^3 H(N)] […] HCl and counted. Phosphatidate phosphohydrolase activity was measured as the inorganic phosphate released after 30 min from phosphatidic acid by the method of Mavis et al [J. Lipid Res., 19, 467 (1978)]. […]
substance,measurement,setting,value
{Cu[(CH3)3 N.BH2 CO2 ]2.(CH3)3 N.BH2 COOH} [Compound I],messenger ribonucleic acid polymerase inhibition,[1],not inhibited
same,HMG CoA Reductase,HMG CoA Reductase; 2.5 mg/kg,112 ± 8% of control
same,HMG CoA Reductase,HMG CoA Reductase; 5.0 mg/kg,108 ± 9% of control
same,HMG CoA Reductase,HMG CoA Reductase; 10 mg/kg,102 ± 8% of control
